Where two headings read alike, the source gives them in different places. Positions of bridges follow the written chain, without caps; N, C: chain ends. Residues, ends and D or L forms follow the SMILES beside them.
How the values were obtained:
[1] = system: P. aeruginosa; assay: Serial passage/resistance assay; format: cell-based, Pseudomonas aeruginosa; settings: continuous exposure to sub-lethal doses, 30 days
[2] = system: Vibrio alginolyticus
[3] = system: human lung fibroblasts (IMR90 cells (ATCC CCL-186)); assay: Cytotoxicity; format: cell-based; settings: even at doses>80 μM
[4] = system: Human Bronchial Epithelial Cell Line (BEAS; ATCC CRL-9609); assay: Cytotoxicity, resazurin cell viability; format: cell-based; settings: even at doses>80 μM
Protocol: (§1) The toxicity of Michelicin on human cells was tested as previously described (Borie et al., 2017; Oyama et al., 2017). Briefly, human cells were cultured in Dulbecco's modified essential medium (DMEM) supplemented with 10% fetal calf serum (FCS), 1% L-glutamine and 1% antibiotics (all from Invitrogen). Cells were routinely grown in onto 25 cm^2 flasks maintained in a 5% CO2 incubator at 37° C. For toxicity assay, cells grown on 25 cm^2 flasks were detached using trypsin-EDTA solution (Thermofisher) and seeded into 96-well cell culture plates (Greiner Bio-one) at approximately 10^4 cells per well (counted using Mallasez's chamber). The cells were grown at 37° C. in a 5% CO2 incubator until they reached confluence (approximately 48-72 h of seeding). Wells were then aspirated and increasing concentrations of AMP were added to the cells and incubated for a further 48 h at 37° C. in a 5% CO2 incubator. The wells were then emptied, and cell viability was evaluated using resazurin based in vitro toxicity assay kit (Sigma-Aldrich) following manufacturer's instructions. Briefly, resazurin stock solution was diluted 1:100 in sterile PBS containing calcium and magnesium (PBS++, pH 7.4) and emptied wells were filled with 100 μL of the resazurin diluted solution. After 4 h incubation at 37° C. with the peptide treated cells, fluorescence intensity was measured using microplate reader (SynerMix, Bioteck) (excitation wavelength of 530 nm/emission wavelength of 590 nm). The fluorescence values were normalized by the controls and expressed as percentage of cell viability. The IC50 values of tested AMP on cell viability (i.e. the concentration of peptides causing a reduction of 50% of the cell viability) were calculated using GraphPad® Prism 7 software. Two cell lines were tested: Human Bronchial Epithelial Cell Line (BEAS; ATCC CRL-9609) and Human umbilical vein endothelial cell (HUVEC).

[5] = Cytotoxicity, resazurin cell viability; format: cell-based, human; settings: human, 80 μM, 48 h
Protocol: as §1

[6] = system: Human umbilical vein endothelial cell (HUVEC); assay: Cytotoxicity, resazurin cell viability; format: cell-based; settings: even at doses>80 μM
Protocol: as §1

[7] = system: M. smegmatis mc^2155
[8] = system: human erythrocytes; assay: Haemolytic assay; format: cell-based
Protocol: The hemolytic activity of the peptides was determined using fresh human erythrocytes from healthy donors. Blood was centrifuged and the erythrocytes were washed three times with a phosphate-buffered saline (PBS: 35 mM phosphate buffer/150 mM NaCl, pH 7.4). […] Samples were incubated at 37° C. for 60 min. After incubating the mixtures were centrifuged at 1,500 rpm for 10 min. The release of hemoglobin was monitored by measuring the absorbance (Abs) of the supernatant at 405 nm. Hemolytic rates of 0 and 100% were determined in PBS and 0.1% Triton X-100, respectively. The percentage of hemolysis was calculated by employing the following equation: Percentage hemolysis=[([…])/(Abs405 nm in 0.1% Triton X-100−Abs405 nm in PBS)]×100.

[9] = system: Mycobacterium tuberculosis mc^26230
[10] = system: P. aeruginosa
[11] = system: Bacillus subtilis (ATCC 6633); assay: MIC, broth microdilution; format: cell-based; settings: Table IV, strain description
Protocol: To standardize the bacterial cell suspension for assay of antibacterial activity, some colonies of each strain grown overnight on MHA (Mueller Hinton Agar. ROTH) plates were suspended in MHB (Mueller Hinton Broth. ROTH) or MHB saline (Mueller Hinton Broth containing 565 mM NaCl) and incubated at 37° C. or 30° C. until visible turbid. This log-phase inoculum was diluted 1:100 in the same culture media. Using sterile 96-well microtiter plates (CELLSTAR. Greiner bio-one), serial 2-fold dilutions (40 to 0.78 μM) of each peptide were prepared in cation-adjusted acetic acid 0.02% with 0.4% BSA (Bovin Serum Albumin fraction V. Boehringer) at a volume of 10 μL/well. Each well was inoculated with 100 μL of the standardized bacterial inoculum, corresponding to a final test concentration of about 10^5 CFU/mL. Antimicrobial activities were expressed as the MIC (Minimal Inhibitory Concentration), the lowest concentration of peptide at which 100% inhibition of microbial growth was observed after 24 h of incubation at 37° C. or 30° C. by measuring OD600 in a microtiter plate reader. The minimal bactericidal concentration (MBC) was defined as the peptide concentration where no colony growth was observed.
The same experiments as described in 1) were performed. For the evaluation of antimicrobial activity against some other strains, a resazurin microtiter assay was used as explained hereinafter.

[12] = system: B. subtilis nisin resistant (DSMZ 347); settings: Table IV, strain description
[13] = system: P. aeruginosa; assay: Membrane permeabilization assay (propidium iodide); format: cell-based, Pseudomonas aeruginosa; settings: 2.5 min of incubation, 37° C., 3 times their MIC; CTAB at 300 μM
Protocol: Several tests were performed to determine the mechanism of the antimicrobial activity of the peptides of the invention. Most of the cationic AMP can increase the permeability of the bacterial membrane through pore-forming activity. We evaluated the ability of Michelicin to cause pore-formation using P. aeruginosa as model bacteria. Permeabilization of the bacterial membrane by Michelicin was evaluated using the cell-impermeable DNA probe propidium iodide (PI) (Di Pasquale et al., 2010; Oyama et al., 2017). PI can interact with DNA/RNA, leading to increase in fluorescence of the molecule. The bacterial membrane is impermeable to PI preventing its interaction with intracellular DNA/RNA. Thus, fluorescence of PI (expressed as RFU: relative fluorescence unit) only increases if membrane integrity is compromised through pore-formation. We measured the time-dependent effect of our peptide and other molecules on PI fluorescence at 37° C., all molecules being tested at 3 times their MIC. […] Kinetics of fluorescence variations (excitation at 530 nm/emission at 590 nm) were recorded using a microplate reader (SynergyMx, Bioteck) over 80 min period at 37° C. […] The permeabilization effect of the tested compound (i.e., Michelicin, Alvinellacin, Arenicin, and control, PMB or CTAB) was expressed as percentage of total permeabilization caused by CTAB.

Molecule: CO/N=C1\CN(c2nc3c(cc2F)c(=O)c(C(=O)O)cn3C2CC2)CC1CN (stereo not drawn) [Gemifloxacin]
- Resistance induction / fold increase in initial MIC (in words) [1]: relevant

Molecule: CC[C@H](C)[C@@H]1NC(=O)[C@H](CCCNC(=N)N)NC(=O)[C@H](C(C)C)NC(=O)[C@@H](NC(=O)[C@@H](NC(=O)[C@@H](N)CCCNC(=N)N)C(C)C)CSSC[C@@H](C(=O)N[C@@H](Cc2c[nH]c3ccccc23)C(=O)N[C@@H](CC(N)=O)C(=O)N[C@H](C(=O)O)[C@@H](C)O)NC(=O)[C@H](CCCNC(=N)N)NC(=O)[C@H](CCCNC(=N)N)NC(=O)[C@H](Cc2ccc(O)cc2)NC(=O)[C@@H]2CSSC[C@H](NC1=O)C(=O)N[C@@H](CCCNC(=N)N)C(=O)N[C@@H](CC(N)=O)C(=O)NCC(=O)N[C@@H](CCCNC(=N)N)C(=O)N2 [Michelicin, RVC1VRIC2RNGRC3YRRC4WNT] (H-RVCVRICRNGRCYRRCWNT-OH; disulfide 3-16, 7-12)
- MIC with 565 mM NaCl [2]: 0.62 to 1.25 µM
- V. alginolyticus MIC [2]: 1.25 to 2.5 µM
- MIC ([2]; 24 h): 0.07 to 0.15 µM
- Cytotoxic activity towards IMR90 cells [3]: not observed
- Cytotoxic activity towards BEAS cells [4]: not observed
- viability at 48 h, 80 µM ([5]; BEAS human bronchial epithelial cells (ATCC CRL-9609), read-out: % of viability, BEAS cells): 100%
- viability at 48 h, 80 µM ([5]; HUVEC (human umbilical vein endothelial cells), read-out: % of viability, HUVEC cells): 95%
- Cytotoxic activity towards HUVEC cells [6]: not observed
- M. smegmatis mc^2155 MIC [7]: 0.57 to 2.15 µM
- Effect on hemolysis ([8]; 1.2 to 40 μM, 60 min at 37° C., FIG. 2): far less than the effect of Arenicin
- Hemolytic activity ([8]; even at doses>80 μM): not observed
- M. tuberculosis mc^26230 MIC [9]: 12.3 to 13.0 µM
- MIC [9]: 12.3 to 13.0 µM
- P. aeruginosa MIC [10]: 2.5 to 5 µM

Molecule: Nisin
- MIC Nisin [11]: (MIC Nisin < 0.09 μg/mL)
- MIC Nisin [12]: MIC (Nisin 3 μg/mL)

Molecule: polymyxin B [PMB]
- Permeabilization (percentage of total permeabilization caused by CTAB) [13]: 2-5%
